# PubChem BioAssay AID248 (DTP/NCI, 2004)
# Where “and” joins values, the source holds several entries; their conditions need not be identical. Equal values may be shown once. Toxic doses and inconclusive results are not listed. Square brackets hold non-standard residues; d marks the D form. Peptide text beside a SMILES is read from it. ξ: configuration not given here. ξD = NC(CC(=O)O)C(=O)O
# System: L1210 leukemia ip in BDF1 mice, survival T/C
# Assay: NCI In Vivo Anticancer Drug Screen. Data for tumor model L1210 Leukemia (intraperitoneal) in B6D2F1 (BDF1) mice
# Settings: endpoint: mean survival time, higher = longer survival
# Summary of the method: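 Antitumor effect is assessed in tumor-bearing animals. Survival in the compound arm is compared with a vehicle-dosed control arm and expressed as their quotient.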
# [1] = dose: 100.0 mg/kg/injection, schedule: Q01DX001 (ip), vehicle: saline
# [2] = dose: 200.0 mg/kg/injection, schedule: Q01DX001 (ip), vehicle: saline
# [3] = dose: 400.0 mg/kg/injection, schedule: Q01DX001 (ip), vehicle: saline
# [4] = dose: 50.0 mg/kg/injection, schedule: Q01DX009 (ip), vehicle: saline
# [5] = dose: 100.0 mg/kg/injection, schedule: Q01DX009 (ip), vehicle: saline
# [6] = dose: 100.0 mg/kg/injection, schedule: Q01DX009 (ip), vehicle: saline with Tween-80
# [7] = dose: 200.0 mg/kg/injection, schedule: Q01DX009 (ip), vehicle: saline with Tween-80
# [8] = dose: 400.0 mg/kg/injection, schedule: Q01DX009 (ip), vehicle: saline with Tween-80
# [9] = dose: 100.0 mg/kg/injection, schedule: Q04DX003 (ip), vehicle: Klucel (hydroxypropylcellulose) (HPC)
# [10] = dose: 200.0 mg/kg/injection, schedule: Q04DX003 (ip), vehicle: Klucel (hydroxypropylcellulose) (HPC)
# [11] = dose: 400.0 mg/kg/injection, schedule: Q04DX003 (ip), vehicle: Klucel (hydroxypropylcellulose) (HPC)
# [12] = dose: 100.0 mg/kg/injection, schedule: Q01DX009 (ip), vehicle: Klucel (hydroxypropylcellulose) (HPC)
# [13] = dose: 200.0 mg/kg/injection, schedule: Q01DX009 (ip), vehicle: Klucel (hydroxypropylcellulose) (HPC)
# [14] = dose: 100.0 mg/kg/injection, schedule: Q04DX003 (ip), vehicle: saline with Tween-80
# [15] = dose: 100.0 mg/kg/injection, schedule: Q04DX002 (ip), vehicle: saline
# [16] = dose: 200.0 mg/kg/injection, schedule: Q04DX002 (ip), vehicle: saline
smiles,measurement,setting,value
NCC(=O)NC(CC(=O)O)C(=O)O (stereo unspecified) (H-Gly-[ξD]-OH),T/C,[1],97 % of control
same,T/C,[2],104 % of control
same,T/C,[3],97 % of control
NC1CCC(CC2CC3CCC2C3)CC1 (stereo unspecified),T/C,"dose: 12.5 mg/kg/injection, schedule: Q01DX009 (ip), vehicle: saline",98 % of control
same,T/C,"dose: 25.0 mg/kg/injection, schedule: Q01DX009 (ip), vehicle: saline",91 % of control
same,T/C,"dose: 25.0 mg/kg/injection, schedule: Q04DX003 (ip), vehicle: saline",100 % of control
same,T/C,[4],100 % of control
same,T/C,"dose: 50.0 mg/kg/injection, schedule: Q04DX003 (ip), vehicle: saline",96 % of control
same,T/C,[5],90 % of control
same,T/C,"dose: 100.0 mg/kg/injection, schedule: Q04DX003 (ip), vehicle: saline",96 % of control
O=NN(CCCl)C(=O)Nc1ccc2[nH]c3ccccc3c2c1,T/C,"dose: 90.0 mg/kg/injection, schedule: Q01DX009 (ip), vehicle: carboxymethylcellulose (CMC)",120 % of control
same,T/C,"dose: 260.0 mg/kg/injection, schedule: Q01DX009 (ip), vehicle: Klucel (hydroxypropylcellulose) (HPC)",108 % of control
same,T/C,"dose: 266.0 mg/kg/injection, schedule: Q01DX009 (ip), vehicle: carboxymethylcellulose (CMC)",157 % of control
same,T/C,"dose: 520.0 mg/kg/injection, schedule: Q01DX009 (ip), vehicle: Klucel (hydroxypropylcellulose) (HPC)",88 % of control
same,T/C,"dose: 600.0 mg/kg/injection, schedule: Q01DX009 (ip), vehicle: carboxymethylcellulose (CMC)",108 % of control
Cc1cc(Br)ccc1N,T/C,[6],99 % of control
same,T/C,[7],95 % of control
same,T/C,[8],99 % of control
CCCCCC(O)C1C(=O)OC(C)C(O)/C=C/C=C/C=C/C=C/C=C(\C)C(O)C(O)C(O)CC(O)CC(O)CC(O)CC(O)CC1O (stereo unspecified),T/C,"dose: 0.5 mg/kg/injection, schedule: Q01DX001 (ip), vehicle: saline",97 % of control
same,T/C,"dose: 1.0 mg/kg/injection, schedule: Q01DX001 (ip), vehicle: saline",97 % of control
same,T/C,"dose: 2.0 mg/kg/injection, schedule: Q01DX001 (ip), vehicle: saline",95 % of control
same,T/C,"dose: 4.0 mg/kg/injection, schedule: Q01DX001 (ip), vehicle: saline",92 % of control
same,T/C,"dose: 8.0 mg/kg/injection, schedule: Q01DX001 (ip), vehicle: saline",97 % of control
O=C(COc1cccc(C(=O)O)c1)Nc1ccccc1,T/C,[9],95 % of control
same,T/C,[10],93 % of control
same,T/C,[11],92 % of control
COC1OCC2OC(C)(C)OC2C1OS(C)(=O)=O (stereo unspecified),T/C,[1],107 % of control
same,T/C,[2],112 % of control
same,T/C,[3],97 % of control
CCOC(=O)C1CCCC23CC(CC12)C(C)(C)C3Br (stereo unspecified),T/C,[12],100 % of control
same,T/C,[9],94 % of control
same,T/C,[13],94 % of control
same,T/C,[10],95 % of control
same,T/C,"dose: 400.0 mg/kg/injection, schedule: Q01DX009 (ip), vehicle: Klucel (hydroxypropylcellulose) (HPC)",94 % of control
same,T/C,[11],103 % of control
O=C(/C=C/C=C/c1ccccc1)c1ccc(Cl)cc1,T/C,[6],97 % of control
same,T/C,[14],95 % of control
same,T/C,[7],92 % of control
same,T/C,[8],95 % of control
same,T/C,"dose: 400.0 mg/kg/injection, schedule: Q04DX003 (ip), vehicle: saline with Tween-80",96 % of control
CCCCCCCCC(=O)N1CCCC(C)C1 (stereo unspecified),T/C,[15],104 % of control
same,T/C,[16],117 % of control
same,T/C,"dose: 400.0 mg/kg/injection, schedule: Q04DX002 (ip), vehicle: saline",101 % of control
Cc1n(CC(C)C)c2c([n+]1C)C(=O)c1ccccc1C2=O,T/C,"dose: 0.03 mg/kg/injection, schedule: Q01DX001 (ip), vehicle: saline",98 % of control
same,T/C,"dose: 0.06 mg/kg/injection, schedule: Q01DX001 (ip), vehicle: saline",109 % of control
same,T/C,"dose: 0.12 mg/kg/injection, schedule: Q01DX001 (ip), vehicle: saline",106 % of control
same,T/C,"dose: 0.24 mg/kg/injection, schedule: Q01DX001 (ip), vehicle: saline",101 % of control
same,T/C,"dose: 0.25 mg/kg/injection, schedule: Q01DX015 (ip), vehicle: saline",97 % of control
same,T/C,"dose: 0.5 mg/kg/injection, schedule: Q01DX015 (ip), vehicle: saline",95 % of control
same,T/C,"dose: 1.0 mg/kg/injection, schedule: Q01DX015 (ip), vehicle: saline",106 % of control and 108 % of control
same,T/C,"dose: 2.0 mg/kg/injection, schedule: Q01DX015 (ip), vehicle: saline",108 % of control
same,T/C,"dose: 2.0 mg/kg/injection, schedule: Q04DX003 (ip), vehicle: saline",91 % of control
O=P(Oc1ccccc1)(N1CCCC1)N1CCCC1,T/C,[4],100 % of control
same,T/C,[5],91 % of control
same,T/C,[15],100 % of control
same,T/C,"dose: 200.0 mg/kg/injection, schedule: Q01DX009 (ip), vehicle: saline",98 % of control
same,T/C,[16],95 % of control
Fc1ccc([P+]2(c3ccc(F)cc3)C=C(c3ccccc3)[P+](c3ccc(F)cc3)(c3ccc(F)cc3)C=C2c2ccccc2)cc1,T/C,"dose: 12.5 mg/kg/injection, schedule: Q01DX001 (ip), vehicle: saline with Tween-80",100 % of control
same,T/C,"dose: 25.0 mg/kg/injection, schedule: Q01DX001 (ip), vehicle: saline with Tween-80",98 % of control
same,T/C,"dose: 50.0 mg/kg/injection, schedule: Q01DX001 (ip), vehicle: saline with Tween-80",100 % of control
Cc1nc2ccccc2n(O)c1=O,T/C,"dose: 50.0 mg/kg/injection, schedule: Q01DX009 (ip), vehicle: Klucel (hydroxypropylcellulose) (HPC)",97 % of control
same,T/C,[12],93 % of control
same,T/C,[13],89 % of control
C[n+]1c(/C=C\C=C\N2CCCCC2)sc2ccccc21,T/C,"dose: 1.25 mg/kg/injection, schedule: Q04DX002 (ip), vehicle: saline with Tween-80",97 % of control
same,T/C,"dose: 2.5 mg/kg/injection, schedule: Q04DX002 (ip), vehicle: saline with Tween-80",108 % of control
COc1ccc(OC(=O)Nc2cccc(C(C)=O)c2)cc1,T/C,"dose: 100.0 mg/kg/injection, schedule: Q01DX009 (ip), vehicle: other",106 % of control
same,T/C,"dose: 200.0 mg/kg/injection, schedule: Q01DX009 (ip), vehicle: other",89 % of control
same,T/C,"dose: 400.0 mg/kg/injection, schedule: Q01DX009 (ip), vehicle: other",101 % of control
C[Si](C)(C)C1C2c3ccccc3C1C1(C#N)C(=O)C(Cl)=C(Cl)C(=O)C21C#N (stereo unspecified),T/C,[14],93 % of control
C[n+]1ccc(/C=C\c2ccc3c(c2)OCO3)cc1,T/C,"dose: 75.0 mg/kg/injection, schedule: Q01DX001 (ip), vehicle: saline",100 % of control
ICC1OCOC2C(CI)OCOC12 (stereo unspecified),T/C,"dose: 100.0 mg/kg/injection, schedule: Q01DX001 (ip), vehicle: other",103 % of control
same,T/C,"dose: 200.0 mg/kg/injection, schedule: Q01DX001 (ip), vehicle: other",93 % of control
same,T/C,"dose: 400.0 mg/kg/injection, schedule: Q01DX001 (ip), vehicle: other",103 % of control
O=c1[nH]c2cnccc2c(=O)n1O,T/C,[6],102 % of control
same,T/C,[7],93 % of control
same,T/C,[8],104 % of control
